Laboratory results published in patent US10723726B2, “Solid forms of (Z)-4-(5-((3-benzyl-4-oxo-2-thioxothiazolidin-5-ylidene)methyl)furan-2-yl)benzoic acid” (GB006, INC., priority 2015, dated 2020).
Counter-ions that a name gives are not always drawn. Like-named read-outs stand apart in the source and are kept apart here.

Legend:
[1] = in vivo
Method: (§1) In a second experiment, the dose solution was prepared in Tween-80 (0.02%) and 0.5% methyl cellulose in Milli-Q water. IP (2 mg/kg) and IV (1 mg/kg) dose solutions were prepared in a 5% DMSO and 95% PEG-200.
(§2) The PO (2 mg/kg) dose solution was prepared in Tween-80 (0.02%) and 0.5% methyl cellulose in Milli-Q water. The IV (1 mg/kg) dose solution was prepared in a solution of 5% DMSO and 95% PEG-200.
(§3) The routes of administration were namely PO (gavage), IP (bolus) and IV (bolus through tail vein). A total of four SD male rats were used aged between 5-6 weeks. The feeding regimen included 12 h fasting and the feed was provided 2 hrs after the dosage inoculation and water was provided ad libidum. The blood collection schedule for PO/IP was at 0.25, 0.5, 1, 2, 4, 8, 10 and 24 h, and for IV it was at 0.12, 0.25, 0.5, 1, 2, 4, 8 and 24 h. For PO dosage, tween-80 (0.02%) and 0.5% methyl cellulose prepared in milli-Q water were used as vehicles; for IP and IV dosage 5% DMSO and 95% PEG-200 were used as vehicles.
(§4) Stock solution (178 μg/mL) in methanol was further diluted using methanol: water (80:20, v/v) to obtain working solutions in the range of 10.4 to 20745 ng/mL.
(§5) 50 μL of sample was aliquoted in to pre-labeled vials. To it was added 200 μL of 10% tetrahydrofuran containing IS (100 ng/mL; tolbutamide) and mixed well, vortexed for 5 min followed by centrifugation for 5 min at 14000 rpm for at 4° C. Supernatant was separated and 5 μL of same was injected on LC-MS/MS.
(§6) Data Analysis: Individual concentration-time data were analyzed using WinNonlin (Version 5.3) by non-compartmental analysis (NCA) method.
(§7) The routes of administration were namely PO (gavage) and IV (bolus through tail vein). A total of four SD male rats were used aged between 5-6 weeks. The feeding regimen included 12 h fasting and the feed was provided 2 hrs after the dosage inoculation and water was provided ad libitum. The blood collection schedule for PO was at 0.25, 0.5, 1, 2, 4, 8, 10 and 24 h, and for IV it was at 0.12, 0.25, 0.5, 1, 2, 4, 8 and 24 h. For PO dosage, tween-80 (0.02%) and 0.5% methyl cellulose prepared in milli-Q water were used as vehicles; for IV dosage 10% DMSO and 90% PEG-200 were used as vehicles.

[2] = in vivo; conditions: male, rat; for half-life: t1/2,ß
Method: as §1, §2, §3, §4, §5, §6, §7

[3] = biological target: T1, glucocorticoid receptor (Homo sapiens, UniProt P04150); assay: Glucocorticoid receptor agonist assay
T1 sequence (P04150 1-777): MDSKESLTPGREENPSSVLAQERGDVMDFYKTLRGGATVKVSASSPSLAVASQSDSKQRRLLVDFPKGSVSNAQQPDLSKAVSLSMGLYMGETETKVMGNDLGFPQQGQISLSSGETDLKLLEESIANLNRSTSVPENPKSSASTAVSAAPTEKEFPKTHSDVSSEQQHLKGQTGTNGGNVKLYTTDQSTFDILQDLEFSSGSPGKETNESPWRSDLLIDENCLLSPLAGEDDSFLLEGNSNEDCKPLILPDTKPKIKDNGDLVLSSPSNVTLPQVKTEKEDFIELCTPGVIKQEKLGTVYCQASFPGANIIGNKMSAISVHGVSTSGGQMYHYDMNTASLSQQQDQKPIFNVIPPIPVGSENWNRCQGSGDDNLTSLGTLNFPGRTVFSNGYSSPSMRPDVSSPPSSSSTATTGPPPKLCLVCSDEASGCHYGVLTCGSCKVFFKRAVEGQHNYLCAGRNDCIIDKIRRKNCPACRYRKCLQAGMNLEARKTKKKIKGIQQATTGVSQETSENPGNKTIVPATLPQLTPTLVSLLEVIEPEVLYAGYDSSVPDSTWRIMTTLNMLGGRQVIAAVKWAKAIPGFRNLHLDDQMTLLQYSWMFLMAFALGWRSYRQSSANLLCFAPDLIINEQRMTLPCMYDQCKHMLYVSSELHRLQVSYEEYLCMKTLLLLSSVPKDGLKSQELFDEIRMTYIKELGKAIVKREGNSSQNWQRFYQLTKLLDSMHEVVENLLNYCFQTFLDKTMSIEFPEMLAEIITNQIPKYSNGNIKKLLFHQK

[4] = male, Sprague Dawley, rat, ip, 2 mg/kg
[5] = male, Sprague-Dawley, rat, ip, 2 mg/kg
[6] = male, Sprague-Dawley, rat, iv, 1 mg/kg
[7] = male, Sprague-Dawley, rat, po, 2 mg/kg

## O=C(O)c1ccc(-c2ccc(/C=C3\SC(=S)N(Cc4ccccc4)C3=O)o2)cc1 [LA1 choline salt]
[1]; male, Sprague Dawley, iv, 1 mg/kg
  Rat Cl: 17.6 mL/min/kg
[1]; male, Sprague Dawley, rat
  Vss: 0.73 L/kg
[1]; [4]
  MRT: 1.02 h
[1]; male, Sprague-Dawley
  Rat Cl: 18 mL/min/kg
[1]; male, Sprague-Dawley, iv, 1 mg/kg
  Rat Cl: 17.6 mL/min/kg
[1]; male, Sprague-Dawley, rat
  % F (absolute IP bioavailability): 84%
  Vss: 0.73 L/kg
[1]; [5]
  AUC0-t: 1657 ng·h/mL
  AUC0-∞: 1666 ng·h/mL
  MRT: 1.02 h
  Tlast: 10.0 h
  Tmax: 0.25 h
[1]; [6]
  AUC0-t: 985 ng·h/mL
  AUC0-∞: 993 ng·h/mL
  C0: 1856 ng/mL
  MRT: 0.72 h
  Tlast: 7.00 h
  Vd: 1.78 L/kg
[1]; [7]
  AUC0-t: 808 ng·h/mL
  AUC0-∞: 814 ng·h/mL
  Tlast: 10.0 h
[2]; Sprague-Dawley, F (absolute oral bioavailability)
  bioavailability: 41%
[2]; Sprague-Dawley, po, 2 mg/kg, MRT
  MRT: 1.81 h
[2]; Sprague-Dawley, po, 2 mg/kg
  half-life: 1.57 h
  Tmax: 0.5 h

## O=C(O)c1ccc(-c2ccc(/C=C3\SC(=S)N(Cc4ccccc4)C3=O)o2)cc1 [LA1, (Z)-4-(5-((3-benzyl-4-oxo-2-thioxothiazolidin-5-ylidene)methyl)furan-2-yl)benzoic acid]
[3]
  efficacy in glucocorticoid receptor agonist assay: shown efficacy
[1]; po, 2 mg/kg
  Rat F %: Exposure too low
[1]; male, Sprague Dawley, rat
  Vss: 4.19 L/kg
[1]; [4]
  MRT: 3.44 h
[1]; male, Sprague-Dawley, rat
  Vss: 4.19 L/kg
[1]; [5]
  AUC0-t: 1481 ng·h/mL
  AUC0-∞: 1499 ng·h/mL
  MRT: 3.44 h
  Tlast: 20.5 h
[1]; [6]
  C0: 1317 ng/mL
  MRT: 3.38 h
  Tlast: 20.0 h
[1]; rat, po, 2 mg/kg
  MRT (hr): Exposure too low
[2]; Sprague Dawley, iv, 1 mg/kg, Rat Cl (ml/min/kg)
  clearance: 19.7 mL/min/kg
[2]; Sprague-Dawley, % F (absolute IP bioavailability)
  bioavailability: 82%
[2]; Sprague-Dawley, Rat Cl (ml/min/kg)
  clearance: 20 mL/min/kg
[2]; Sprague-Dawley, ip, 2 mg/kg, % F (absolute IP bioavailability)
  bioavailability: 81.6%
[2]; Sprague-Dawley, ip, 2 mg/kg, AUC in mM*hr
  AUC: 3.5 µM·h
[2]; Sprague-Dawley, ip, 2 mg/kg
  Tmax: 0.25 h
[2]; Sprague-Dawley, iv, 1 mg/kg, AUC0-t
  AUC0-t: 903 ng·h/mL
[2]; Sprague-Dawley, iv, 1 mg/kg, AUC0-∞
  AUC(0-inf): 918 ng·h/mL
[2]; Sprague-Dawley, iv, 1 mg/kg, CL
  clearance: 19.7 mL/min/kg
[2]; Sprague-Dawley, iv, 1 mg/kg, Cmax
  Cmax: 952 ng/mL
[2]; Sprague-Dawley, iv, 1 mg/kg, Rat Cl (ml/min/kg)
  clearance: 19.7 mL/min/kg
[2]; Sprague-Dawley, iv, 1 mg/kg, Vd
  Vd: 2.39 L/kg
[2]; Sprague-Dawley, iv, 1 mg/kg
  half-life: 1.16 h
